In patent publication US7919496B2, “Heterocyclic derivatives for the treatment of diseases mediated by stearoyl-CoA desaturase enzymes” (Xenon Pharmaceuticals Inc., priority 2004, dated 2011):

| SMILES | melting point [°C] |
| --- | --- |
| CCCCCNC(=O)c1cnc(N2CCN(C(=O)c3ccccc3C(F)(F)F)CC2)s1 [Example 7, 2-[4-(2-TRIFLUOROMETHYLBENZOYL)PIPERAZIN-1-YL]-THIAZOLE-5-CARBOXYLIC ACID PENTYLAMIDE] | 92 to 94 |
| CCCCCNC(=O)c1cc(N2CCN(C(=O)c3ccccc3C(F)(F)F)CC2)nn1C(=O)OCc1ccccc1 [Example 6, 5-PENTYLCARBAMOYL-3-[4-(2-TRIFLUOROMETHYLBENZOYL)PIPERAZIN-1-YL]PYRAZOLE-1-CARBOXYLIC ACID BENZYL ESTER] | 58 to 61 |
